Source: patent publication US4233304A, “Pyridoxine derivatives” (Crinos Industria Farmacobiologica S.p.A., priority 1978, dated 1980)

Assays:
[1] = Acute toxicity per os, single dose, LD50; details: mouse, in vivo, po
Procedure: The acute toxicity has been determined by administering the substances per os in a sole dose to the mouse after 18 hours of fasting. The LD50 has been determined according to Litchfield and Wilcoxon (J. Pharmacol. Exp. Ther. 96, 99, 1949).

in vivo = details: rat, po
Procedure: The ulcer-causing activity has been determined by administering the substances per os to rats which have fasted 18 hours and evaluating the presence of gastric lesions 7 hours after the treatment. The UD50 has been determined according to Litchfield and Wilcoxon (J. Pharmacol. Exp. Ther. 96, 99, 1949).

[2] = Anti-inflammatory activity, caraganin-edema test according to Winter et al; assay type: in vivo; details: rat, vs controls
Source text: As referred above, the inventive compound of the instant invention show anti-inflammatory activity and moreover may show, although not necessarily, also analgesic and/or anti-pyretic activity. The anti-inflammatory activity of the novel compounds of the instant invention has been confirmed by means of the caraganin-edema test on the rat.
Caraganin-edema test according to Winter et al (Proc. Soc. Exp. Biol. Med., 111, 544, 1962) in the normal rat. […]

[3] = Analgesic activity, test of Randall and Selitto; assay type: in vivo; details: rat, variation from algogenic stimulus vs controls
Procedure: Test of Randall and Selitto (Arch. Ing. Pharmacodyn., 111, 409, 1957) on the rat. The analgesic activity is expressed as a percent variation from the algogenic stimulus, after 3 and 5 hours with respect to the controls.

mouse = details: footnote (1) Adams S.S. et al., Tox. Appl. Pharmacol., 15, 310, 1969; cited from earlier work

Structure (SMILES)	LD50 [1]	TD50 at 7 h (in vivo)	Anti-inflammatory Inhibition ([2]; 6.25 mg/kg per os, 3 hrs)	Anti-inflammatory Inhibition ([2]; 6.25 mg/kg per os, 5 hrs)	Anti-inflammatory Inhibition ([2]; 12.5 mg/kg per os, 3 hrs)	Anti-inflammatory Inhibition ([2]; 12.5 mg/kg per os, 5 hrs)	Anti-inflammatory Inhibition ([2]; 25 mg/kg per os, 3 hrs)	Anti-inflammatory Inhibition ([2]; 25 mg/kg per os, 5 hrs)	Anti-inflammatory Inhibition ([2]; 50 mg/kg per os, 3 hrs)	Anti-inflammatory Inhibition ([2]; 50 mg/kg per os, 5 hrs)	Analgesic activity Variation ([3]; 12.5 mg/kg per os, 3 hrs)	Analgesic activity Variation ([3]; 12.5 mg/kg per os, 5 hrs)	Analgesic activity Variation ([3]; 50 mg/kg per os, 3 hrs)	Analgesic activity Variation ([3]; 50 mg/kg per os, 5 hrs)	Anti-inflammatory Inhibition ([2]; 100 mg/kg per os, 3 hrs)	Anti-inflammatory Inhibition ([2]; 100 mg/kg per os, 5 hrs)	LD50 per os/mouse (mouse)
Cc1ncc(COC(=O)C(C)c2ccc(CC(C)C)cc2)c(CO)c1O (stereo not drawn) [2-(4-isobutyl-phenyl)-propionic pyridoxine 5-ester]	> 2000 mg/kg	365 mg/kg	27.1%	24.8%	41.1%	28.4%	48.6%	37.6%	55.1%	42%	+61.2%	+71.4%	+129.6%	+134.3%	–	–	–
CC(C)Cc1ccc(C(C)C(=O)O)cc1 (stereo not drawn) [2-(4-isobutylphenyl)-propionic acid, reference compound]	–	38 mg/kg	–	–	33.6%	16.5%	43.9%	19.3%	54.2%	26.6%	+86.7%	+83.8%	+146.9%	+69.5%	49.5%	32.1%	800 mg/kg
Cc1ncc(COC(=O)C(C)c2ccc(CC(C)C)cc2)c2c1OC(C)(C)OC2 (stereo not drawn) [2-(4-isobutylphenyl)-propionic isopropylidenepyridoxine 5-ester]	> 2200 mg/kg	> 400 mg/kg	–	–	19.6%	18.3%	13.1%	12.8%	43.9%	39.4%	+77.5%	+39.0%	+122.5%	+78.1%	60.7%	42.2%	–
